Source: EP1525798B1, “Carbohydrate oxidase and use thereof in baking” (Novozymes A/S, priority 1997, dated 1999)

Tested on: T1, carbohydrate oxidase from M. nivale (Microdochium nivale CBS 100236, SEQ ID NO: 2), wild type
T1 construct: made in house
Test: Steady state kinetics (apparent Km) by the 4AA-TOPS assay
Type: biochemical
Conditions: apparent value from Lineweaver-Burke plot, simple Michaelis-Menten kinetics assumed, carbohydrate substrate concentration varied, phosphate/citrate pH 6
Procedure: Assays are carried out in 96 well microtiter plates. 100 µl 0.1 M phosphate/citrate, pH 6 is mixed with 50 µl 0.24 M glucose and 50 µl pre-mix (3 mM 4-aminoantipyrine (4AA), 7 mM N-ethyl-N-sulfopropyl-m-toluidine (TOPS), 40 PODU/ml rCiP) and the reaction is started by adding 40 µl of oxidase solution diluted appropriately. Absorption is measured at 490 nm as a function time using the Vmax microtiter plate ready from Molecular Devices and the activity is taken as the slope of the linear increase in absorption.
Steady state kinetics was conducted by varying the concentration of the carbohydrate substrates and determining the carbohydrate oxidase activity by the 4AA-TOPS assay. Simple Michaelis-Menten kinetics was assumed although the reaction is not a simple one substrate-one product mechanism (E+S↔ES↔E+P).
The steady state kinetics for the carbohydrate oxidase from M. nivale were investigated using some of the preferred substrates. Kinetic constants were obtained from a Lineweaver-Burke plot, assuming simple Michaelis-Menten kinetics (although this is a rather poor assumption) to obtain apparent values "Km" and "Vmax" for various substrates.

| SMILES | Km |
| --- | --- |
| OC[C@H]1O[C@H](O[C@H]2[C@H](O)[C@@H](O)C(O)O[C@@H]2CO)[C@H](O)[C@@H](O)[C@@H]1O (mixture of isomers) [Maltose] | 11 mM |
| O=C[C@H](O)[C@@H](O)[C@H](O[C@@H]1O[C@H](CO)[C@@H](O)[C@H](O)[C@H]1O)[C@H](O)CO [Cellobiose] | 59 mM |
| OC[C@H]1OC(O)[C@H](O)[C@@H](O)[C@@H]1O (stereo partly drawn) [Glucose] | 42 mM |
